Source: patent publication US10882843B2, “5-aminopyrazole carboxamide derivative as BTK inhibitor and preparation method and pharmaceutical composition thereof” (SUZHOU SINOVENT PHARMACEUTICALS CO., LTD., priority 2016, dated 2021)

Legend:
TEC = biological target: T1, TEC (Homo sapiens, UniProt P42680); experiment: In vitro kinase selectivity assay, TEC (Lance Ultra); format: biochemical; settings: read-out: TEC kinase inhibitory activity grade
T1 sequence (P42680 1-631): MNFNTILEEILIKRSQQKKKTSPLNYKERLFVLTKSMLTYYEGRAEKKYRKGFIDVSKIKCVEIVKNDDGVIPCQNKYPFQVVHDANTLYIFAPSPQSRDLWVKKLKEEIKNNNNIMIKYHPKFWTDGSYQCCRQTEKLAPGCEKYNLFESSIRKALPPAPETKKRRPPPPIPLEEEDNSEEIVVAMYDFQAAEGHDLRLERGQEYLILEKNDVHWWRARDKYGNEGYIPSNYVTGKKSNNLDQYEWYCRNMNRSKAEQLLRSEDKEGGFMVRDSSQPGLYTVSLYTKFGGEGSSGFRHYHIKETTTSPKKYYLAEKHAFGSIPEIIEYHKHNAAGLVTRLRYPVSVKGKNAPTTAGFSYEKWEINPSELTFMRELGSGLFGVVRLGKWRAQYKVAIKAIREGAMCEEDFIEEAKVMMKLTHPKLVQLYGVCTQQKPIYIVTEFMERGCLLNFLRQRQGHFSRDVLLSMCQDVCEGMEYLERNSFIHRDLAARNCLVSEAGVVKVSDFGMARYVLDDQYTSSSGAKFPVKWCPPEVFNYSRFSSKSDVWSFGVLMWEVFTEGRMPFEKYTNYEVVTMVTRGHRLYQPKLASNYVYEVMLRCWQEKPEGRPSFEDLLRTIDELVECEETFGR
Procedure: (§1) The assay platform for EGFR and ITK kinase activities was established using time-resolved fluorescence resonance energy transfer-based method; the assay platform for LCK, SRC and LYN kinase activities was established using Z′-Lyte method; and the assay platform for TEC and JAK3 kinase activities was established using Lance Ultra method. The inhibitory effects of the compounds disclosed herein on different kinase activities were tested separately for each compound at 11 concentrations. The IC50 value of each compound was calculated using Graphpad Prism software.

Recombinant Btk = Recombinant Btk (Homo sapiens, UniProt Q06187); experiment: Kinase activity (BTK) inhibition assay, TR-FRET; format: biochemical; settings: read-out: BTK kinase inhibitory activity grade (A/B/C)
Sequence of Recombinant Btk (Q06187 whole entry): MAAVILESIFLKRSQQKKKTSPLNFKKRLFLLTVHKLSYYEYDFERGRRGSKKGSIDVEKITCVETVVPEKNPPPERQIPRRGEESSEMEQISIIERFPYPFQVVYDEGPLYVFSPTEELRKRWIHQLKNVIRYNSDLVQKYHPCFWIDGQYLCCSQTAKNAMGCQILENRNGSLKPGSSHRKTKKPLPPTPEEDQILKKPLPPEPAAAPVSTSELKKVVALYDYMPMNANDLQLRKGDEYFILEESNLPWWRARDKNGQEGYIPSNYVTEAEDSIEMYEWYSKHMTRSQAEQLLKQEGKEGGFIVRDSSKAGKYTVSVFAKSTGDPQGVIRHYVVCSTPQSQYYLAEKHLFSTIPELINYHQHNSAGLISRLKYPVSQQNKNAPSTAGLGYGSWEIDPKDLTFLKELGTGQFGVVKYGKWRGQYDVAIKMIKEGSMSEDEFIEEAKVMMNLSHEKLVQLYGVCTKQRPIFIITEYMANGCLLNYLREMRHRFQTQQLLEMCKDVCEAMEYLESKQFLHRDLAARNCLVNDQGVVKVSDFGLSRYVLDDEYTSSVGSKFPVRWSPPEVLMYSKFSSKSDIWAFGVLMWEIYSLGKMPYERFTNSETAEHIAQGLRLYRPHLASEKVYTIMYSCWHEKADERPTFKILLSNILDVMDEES
Procedure: Kinase Activity (BTK) Inhibition Assay
The inhibitory effects of the compounds disclosed herein on BTK kinase activity were tested in an assay based on a time resolved fluorescence resonance energy transfer (TR-FRET) method. Recombinant Btk was pre-incubated with the compound disclosed herein in an assay buffer containing 50 mM. Tris pH 7.4, 10 mM MgCl2, 2 mM MnCl2, 0.1 mM EDTA, 1 mM DTT, 20 nM SEB, 0.1% BSA, 0.005% tween-20 at room temperature for 1 hour. The reaction was initiated by the addition of ATP (at the ATP Km concentration) and the peptide substrate (Biotin-[…]-NH2). After incubation for 1 hour at room temperature, an equal volume of stop solution containing 50 mM HEPES pH 7.0, 800 mM KF, 20 mM EDTA, 0.1% BSA, p-Tyr66 antibody linked with Eu cryptate and streptavidin-labeled XL665 was added to stop the reaction. The plate was incubated for an additional hour at room temperature and then the TR-FRET signal was read on a BMG PHERAstar FS instrument (ex337 nm, em 620 nm/665 nm). Based on the ratio of the signal of fluorescence at […] to 665 nm, the enzyme activity was calculated with an increased compound concentration. IC50 of each compound was obtained by fitting the data to the four-parameter equation of Graphpad Prism software.

SRC = SRC (Homo sapiens, UniProt P12931); experiment: In vitro kinase selectivity assay, SRC (Z'-Lyte); format: biochemical; settings: read-out: SRC kinase inhibitory activity grade
Sequence of SRC (P12931 whole entry, species assumed): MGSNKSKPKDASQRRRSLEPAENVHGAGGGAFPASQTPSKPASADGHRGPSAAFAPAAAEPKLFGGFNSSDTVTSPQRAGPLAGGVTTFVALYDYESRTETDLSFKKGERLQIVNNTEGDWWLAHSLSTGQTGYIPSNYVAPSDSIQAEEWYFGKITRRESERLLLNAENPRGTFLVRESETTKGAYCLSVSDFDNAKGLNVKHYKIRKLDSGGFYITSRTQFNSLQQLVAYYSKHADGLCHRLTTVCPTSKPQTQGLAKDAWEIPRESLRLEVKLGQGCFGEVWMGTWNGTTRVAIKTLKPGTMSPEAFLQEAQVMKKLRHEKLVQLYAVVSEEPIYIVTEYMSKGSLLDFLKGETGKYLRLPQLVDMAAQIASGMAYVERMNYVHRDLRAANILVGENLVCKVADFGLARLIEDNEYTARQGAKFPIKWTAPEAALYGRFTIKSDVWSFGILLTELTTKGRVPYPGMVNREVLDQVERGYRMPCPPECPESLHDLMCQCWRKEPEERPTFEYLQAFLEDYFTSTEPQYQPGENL
Procedure: as §1

LYN = LYN (Homo sapiens, UniProt P07948); experiment: In vitro kinase selectivity assay, LYN (Z'-Lyte); format: biochemical; settings: read-out: LYN kinase inhibitory activity grade
Sequence of LYN (P07948 whole entry, species assumed): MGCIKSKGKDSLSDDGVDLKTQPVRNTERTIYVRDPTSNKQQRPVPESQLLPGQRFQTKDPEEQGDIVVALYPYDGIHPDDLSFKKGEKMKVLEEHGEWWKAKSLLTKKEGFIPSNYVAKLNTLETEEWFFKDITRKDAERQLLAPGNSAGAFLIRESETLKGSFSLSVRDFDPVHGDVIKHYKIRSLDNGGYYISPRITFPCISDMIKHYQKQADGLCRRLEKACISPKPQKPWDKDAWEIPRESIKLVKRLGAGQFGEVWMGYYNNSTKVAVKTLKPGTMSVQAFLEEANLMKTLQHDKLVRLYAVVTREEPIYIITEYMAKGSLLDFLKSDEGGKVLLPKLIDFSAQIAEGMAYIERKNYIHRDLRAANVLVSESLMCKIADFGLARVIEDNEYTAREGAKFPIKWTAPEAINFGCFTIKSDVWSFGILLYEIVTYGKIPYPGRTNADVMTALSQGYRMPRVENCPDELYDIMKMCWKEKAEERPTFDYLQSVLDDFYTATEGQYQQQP
Procedure: as §1

ITK = biological target: T2, ITK (Homo sapiens, UniProt Q08881); experiment: In vitro kinase selectivity assay, ITK (TR-FRET); format: biochemical; settings: read-out: ITK kinase inhibitory activity grade
T2 sequence (Q08881 1-620): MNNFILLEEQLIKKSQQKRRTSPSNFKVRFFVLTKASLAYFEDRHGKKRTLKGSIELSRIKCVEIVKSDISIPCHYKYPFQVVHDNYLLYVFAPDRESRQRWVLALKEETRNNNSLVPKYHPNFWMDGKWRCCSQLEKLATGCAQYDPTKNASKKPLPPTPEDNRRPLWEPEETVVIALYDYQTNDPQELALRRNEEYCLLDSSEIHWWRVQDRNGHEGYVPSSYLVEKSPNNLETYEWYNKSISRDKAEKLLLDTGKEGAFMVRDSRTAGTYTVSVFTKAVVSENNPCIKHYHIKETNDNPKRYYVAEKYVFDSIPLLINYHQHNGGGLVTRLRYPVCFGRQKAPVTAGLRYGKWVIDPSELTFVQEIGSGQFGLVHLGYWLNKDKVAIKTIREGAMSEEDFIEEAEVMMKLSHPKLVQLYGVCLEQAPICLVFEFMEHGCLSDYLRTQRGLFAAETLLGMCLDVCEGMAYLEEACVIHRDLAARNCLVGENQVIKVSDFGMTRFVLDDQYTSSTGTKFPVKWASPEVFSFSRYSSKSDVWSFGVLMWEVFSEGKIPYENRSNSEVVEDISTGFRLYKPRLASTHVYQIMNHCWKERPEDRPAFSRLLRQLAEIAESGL
Procedure: as §1

[1] = system: diffuse large B-cell lymphoma cell line TMD-8; experiment: Pharmacodynamic assay, TMD-8 xenograft in NOD.SCID mice; format: in vivo; settings: p.o. daily for 21 days
Procedure: Severe immunodeficiency NOD.SCID mice were purchased from Beijing Vital River Laboratory Animal Technology Co., Ltd., and were housed in SPF grade animal room. After TMD-8 cells were cultured to the sufficient amount, the cells were collected by centrifugation and washed twice with PBS. Finally, the cells were resuspended in serum-free RPMI 1640 medium plus Matrigel (1:1 v/v). 0.2 ml of cell suspension was injected subcutaneously on the right flank of each mouse using 1 ml syringe and 25 G syringe needle. The tumor size was measured with a caliper after about one week post injection. The tumor volume was calculated according to the following formula: tumor volume=(length×width^2)/2. When the tumor volume reached about 100-200 mm^3, the mice were grouped and p.o. administered daily for 21 days.

LCK = LCK (Homo sapiens, UniProt P06239); experiment: In vitro kinase selectivity assay, LCK (Z'-Lyte); format: biochemical; settings: read-out: LCK kinase inhibitory activity grade
Sequence of LCK (P06239 whole entry, species assumed): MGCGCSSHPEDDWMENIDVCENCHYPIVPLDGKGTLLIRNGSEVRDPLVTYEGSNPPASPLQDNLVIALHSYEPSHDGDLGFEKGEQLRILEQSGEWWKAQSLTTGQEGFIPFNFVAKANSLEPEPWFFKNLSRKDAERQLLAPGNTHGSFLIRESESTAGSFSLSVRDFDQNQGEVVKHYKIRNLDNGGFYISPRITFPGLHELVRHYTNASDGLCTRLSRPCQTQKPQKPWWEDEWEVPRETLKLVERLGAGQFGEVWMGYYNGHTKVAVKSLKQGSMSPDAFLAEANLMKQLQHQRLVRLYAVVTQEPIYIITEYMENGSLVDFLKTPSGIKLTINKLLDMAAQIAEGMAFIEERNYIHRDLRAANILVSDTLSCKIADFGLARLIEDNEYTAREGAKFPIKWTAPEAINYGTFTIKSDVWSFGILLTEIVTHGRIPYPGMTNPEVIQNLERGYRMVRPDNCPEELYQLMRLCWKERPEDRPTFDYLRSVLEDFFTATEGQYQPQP
Procedure: as §1

EGFR = EGFR (Homo sapiens, UniProt P00533); experiment: In vitro kinase selectivity assay, EGFR (TR-FRET); format: biochemical; settings: read-out: EGFR kinase inhibitory activity grade
Sequence of EGFR (P00533 25-1210): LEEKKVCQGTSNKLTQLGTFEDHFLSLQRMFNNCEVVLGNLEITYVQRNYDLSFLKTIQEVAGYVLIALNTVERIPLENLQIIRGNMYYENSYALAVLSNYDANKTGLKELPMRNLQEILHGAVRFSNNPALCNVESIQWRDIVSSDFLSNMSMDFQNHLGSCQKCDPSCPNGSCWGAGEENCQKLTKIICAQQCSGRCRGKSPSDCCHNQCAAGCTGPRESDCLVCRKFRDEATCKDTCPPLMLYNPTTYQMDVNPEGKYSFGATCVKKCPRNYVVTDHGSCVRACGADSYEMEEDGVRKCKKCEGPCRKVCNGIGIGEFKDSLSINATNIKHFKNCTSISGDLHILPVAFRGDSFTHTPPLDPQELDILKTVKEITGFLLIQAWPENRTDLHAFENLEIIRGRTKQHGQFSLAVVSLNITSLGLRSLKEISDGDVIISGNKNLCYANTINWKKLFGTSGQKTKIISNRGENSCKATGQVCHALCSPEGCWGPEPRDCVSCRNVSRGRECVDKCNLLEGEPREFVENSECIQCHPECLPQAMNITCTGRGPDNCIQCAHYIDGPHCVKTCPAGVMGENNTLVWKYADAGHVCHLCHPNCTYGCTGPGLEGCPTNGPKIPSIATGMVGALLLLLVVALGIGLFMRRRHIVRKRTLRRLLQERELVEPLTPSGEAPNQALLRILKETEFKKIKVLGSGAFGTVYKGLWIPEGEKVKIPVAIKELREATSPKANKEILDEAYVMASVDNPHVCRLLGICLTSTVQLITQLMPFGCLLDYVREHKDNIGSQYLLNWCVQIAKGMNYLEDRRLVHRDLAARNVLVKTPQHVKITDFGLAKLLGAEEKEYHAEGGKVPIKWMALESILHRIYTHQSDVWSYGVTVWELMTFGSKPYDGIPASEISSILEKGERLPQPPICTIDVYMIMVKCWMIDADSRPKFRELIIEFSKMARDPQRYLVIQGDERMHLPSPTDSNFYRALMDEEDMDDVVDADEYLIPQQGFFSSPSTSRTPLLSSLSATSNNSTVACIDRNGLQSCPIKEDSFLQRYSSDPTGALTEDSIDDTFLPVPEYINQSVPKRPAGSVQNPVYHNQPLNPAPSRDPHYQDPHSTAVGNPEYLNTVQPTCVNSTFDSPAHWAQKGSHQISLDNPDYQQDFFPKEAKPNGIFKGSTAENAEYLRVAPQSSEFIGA
Procedure: as §1

| Compound | IC50 (TEC) [nM] | IC50 (Recombinant Btk) [nM] | IC50 (SRC) [nM] | IC50 (LYN) [nM] | IC50 (ITK) [nM] | IC50 (LCK) [nM] | IC50 (EGFR) [nM] | growth of TMD-8 tumor in vivo [1] |
| --- | --- | --- | --- | --- | --- | --- | --- | --- |
| N#CN1C[C@H](n2nc(-c3ccc(Oc4ccc(Cl)cn4)cc3)c(C(N)=O)c2N)CCC12CC2 [WS-413, (R)-5-amino-3-(4-((5-chloropyridin-2-yl)oxy)phenyl)-1-(4-cyano-4-azaspiro[2.5]oct-6-yl)-1H-pyrazole-4-carboxamide] | < 100 | < 100 | > 1000 | > 1000 | > 1000 | > 1000 | 100 to 1000 | significantly inhibited the growth |
| CC#CC(=O)N1C[C@H](n2nc(-c3ccc(Oc4ccc(F)cc4F)cc3)c(C(N)=O)c2N)CCC12CC2 [WS-422, (R)-5-amino-1-(4-(2-butynoyl)-4-azaspiro[2.5]oct-6-yl)-3-(4-(2,4-difluorophenoxy)phenyl)-1H-pyrazole-4-carboxamide] |  |  |  |  |  |  |  | significantly inhibited the growth |

Further lines, with some results ahead:

| IC50 (TEC) [nM] | IC50 (Recombinant Btk) [nM] | IC50 (SRC) [nM] | IC50 (LYN) [nM] | IC50 (ITK) [nM] | IC50 (LCK) [nM] | IC50 (EGFR) [nM] | Compound | growth of TMD-8 tumor in vivo [1] |
| --- | --- | --- | --- | --- | --- | --- | --- | --- |
| < 100 | < 100 | > 1000 | 100 to 1000 | > 1000 | 100 to 1000 | > 1000 | N#CN1C[C@H](n2nc(-c3ccc(Oc4ccc(F)cc4F)cc3)c(C(N)=O)c2N)CCC12CC2 [WS-411, (R)-5-amino-1-(4-cyano-4-azaspiro[2.5]oct-6-yl)-3-(4-(2,4-difluorophenoxy)phenyl)-1H-pyrazole-4-carboxamide] | significantly inhibited the growth |
| < 100 | < 100 | > 1000 | > 1000 | > 1000 | > 1000 | > 1000 | CC#CC(=O)N1C[C@H](n2nc(-c3ccc(Oc4ccc(Cl)cn4)cc3)c(C(N)=O)c2N)CCC12CC2 [WS-416, (R)-5-amino-1-(4-(2-butynoyl)-4-azaspiro[2.5]oct-6-yl)-3-(4-((5-chloropyridin-2-yl)oxy)phenyl)-1H-pyrazole-4-carboxamide] | significantly inhibited the growth |
|  | < 100 |  |  |  |  |  | CC#CC(=O)N1C[C@H](n2nc(-c3ccc(Oc4ccc(F)cc4F)cc3)c(C(N)=O)c2N)CCC12CC2 [WS-421, (R)-5-amino-1-(4-(2-butynoyl)-4-azaspiro[2.5]oct-6-yl)-3-(4-(2,4-difluorophenoxy)phenyl)-1H-pyrazole-4-carboxamide] |  |
